Reference: PubChem BioAssay (NCI)
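Where inhibition never reached the appropriate level, the endpoint shown equals the highest concentration tested. Otherwise, values were interpolated linearly from a five-concentration, 48-hour dose response in 96-well plates. Abbreviation: GI50, concentration required for 50% inhibition of growth. TGI is the concentration that stops growth completely.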

Assays:
Assay in all cases: DTP human tumour cell line panel, 48 h
SK-OV-3 ovarian = test system: SK-OV-3 ovarian
NCI-H226 lung = test system: NCI-H226 lung
MDA-MB-231 breast = test system: MDA-MB-231 breast
CCRF-CEM leukemia = test system: CCRF-CEM leukemia
NCI-H522 lung = test system: NCI-H522 lung
UACC-62 melanoma = test system: UACC-62 melanoma
SNB-19 CNS = test system: SNB-19 CNS
SW-620 colon = test system: SW-620 colon
HCC-2998 colon = test system: HCC-2998 colon
TK-10 renal = test system: TK-10 renal
DU-145 prostate = test system: DU-145 prostate
RXF 393 renal = test system: RXF 393 renal
MCF7 breast = test system: MCF7 breast
EKVX NSCLC = test system: EKVX NSCLC
SF-268 CNS = test system: SF-268 CNS
SNB-75 CNS = test system: SNB-75 CNS
ACHN renal = test system: ACHN renal
IGROV1 ovarian = test system: IGROV1 ovarian
HCT-15 colon = test system: HCT-15 colon
SR leukemia = test system: SR leukemia
RPMI-8226 leukemia = test system: RPMI-8226 leukemia
MDA-MB-435 = test system: MDA-MB-435
COLO 205 colon = test system: COLO 205 colon
HOP-92 NSCLC = test system: HOP-92 NSCLC
OVCAR-5 ovarian = test system: OVCAR-5 ovarian
HL-60(TB) leukemia = test system: HL-60(TB) leukemia
LOX IMVI melanoma = test system: LOX IMVI melanoma
NCI-H460 lung = test system: NCI-H460 lung
T-47D breast = test system: T-47D breast
BT-549 breast = test system: BT-549 breast
SF-295 CNS = test system: SF-295 CNS
NCI-H23 lung = test system: NCI-H23 lung
HCT-116 colon = test system: HCT-116 colon
MALME-3M melanoma = test system: MALME-3M melanoma
MOLT-4 leukemia = test system: MOLT-4 leukemia
NCI/ADR-RES ovarian = test system: NCI/ADR-RES ovarian
PC-3 prostate = test system: PC-3 prostate
SN12C renal = test system: SN12C renal
SK-MEL-5 melanoma = test system: SK-MEL-5 melanoma
M14 melanoma = test system: M14 melanoma
OVCAR-4 ovarian = test system: OVCAR-4 ovarian
HS 578T breast = test system: HS 578T breast
K-562 leukemia = test system: K-562 leukemia
SK-MEL-2 melanoma = test system: SK-MEL-2 melanoma
SF-539 CNS = test system: SF-539 CNS
OVCAR-8 ovarian = test system: OVCAR-8 ovarian
SK-MEL-28 melanoma = test system: SK-MEL-28 melanoma
UACC-257 melanoma = test system: UACC-257 melanoma
KM12 colon = test system: KM12 colon
A549 NSCLC = test system: A549 NSCLC
UO-31 renal = test system: UO-31 renal
786-0 renal = test system: 786-0 renal
HT29 colon = test system: HT29 colon
U251 CNS = test system: U251 CNS
A498 renal = test system: A498 renal
CAKI-1 renal = test system: CAKI-1 renal
HOP-62 NSCLC = test system: HOP-62 NSCLC

Oc1ccc(CSc2nnc(-c3ccc(Cl)cc3)n2-c2ccccc2)c2cccnc12
GI50 (SK-OV-3 ovarian): 2.34 µM
TGI (SK-OV-3 ovarian): > 100 µM
GI50 (NCI-H226 lung): 4.98 µM
TGI (NCI-H226 lung): > 100 µM
GI50 (MDA-MB-231 breast): 5.84 µM
TGI (MDA-MB-231 breast): > 100 µM
GI50 (CCRF-CEM leukemia): 0.488 µM
TGI (CCRF-CEM leukemia): > 100 µM
GI50 (NCI-H522 lung): 1.91 µM
TGI (NCI-H522 lung): > 100 µM
GI50 (UACC-62 melanoma): 1.49 µM
TGI (UACC-62 melanoma): > 100 µM
GI50 (SNB-19 CNS): 0.434 µM
TGI (SNB-19 CNS): > 100 µM
GI50 (SW-620 colon): 0.436 µM
TGI (SW-620 colon): > 100 µM
GI50 (HCC-2998 colon): 0.733 µM
TGI (HCC-2998 colon): > 100 µM
GI50 (TK-10 renal): 0.756 µM
TGI (TK-10 renal): > 100 µM
GI50 (DU-145 prostate): 0.762 µM
TGI (DU-145 prostate): > 100 µM
GI50 (RXF 393 renal): 1.79 µM
TGI (RXF 393 renal): > 100 µM
GI50 (MCF7 breast): 0.41 µM
TGI (MCF7 breast): > 100 µM
GI50 (EKVX NSCLC): 1.38 µM
TGI (EKVX NSCLC): > 100 µM
GI50 (SF-268 CNS): 0.633 µM
TGI (SF-268 CNS): > 100 µM
GI50 (SNB-75 CNS): 0.802 µM
TGI (SNB-75 CNS): > 100 µM
GI50 (ACHN renal): 0.532 µM
TGI (ACHN renal): > 100 µM
GI50 (IGROV1 ovarian): 0.954 µM
TGI (IGROV1 ovarian): > 100 µM
GI50 (HCT-15 colon): 0.162 µM
TGI (HCT-15 colon): > 100 µM
GI50 (SR leukemia): 0.264 µM
TGI (SR leukemia): > 100 µM
GI50 (RPMI-8226 leukemia): 0.456 µM
TGI (RPMI-8226 leukemia): > 100 µM
GI50 (MDA-MB-435): 0.517 µM
TGI (MDA-MB-435): > 100 µM
GI50 (COLO 205 colon): > 100 µM
TGI (COLO 205 colon): > 100 µM
GI50 (HOP-92 NSCLC): 0.351 µM
TGI (HOP-92 NSCLC): 6.34 µM
GI50 (OVCAR-5 ovarian): 5.73 µM
TGI (OVCAR-5 ovarian): > 100 µM
GI50 (HL-60(TB) leukemia): 0.584 µM
TGI (HL-60(TB) leukemia): > 100 µM
GI50 (LOX IMVI melanoma): 0.425 µM
TGI (LOX IMVI melanoma): > 100 µM
GI50 (NCI-H460 lung): 0.368 µM
TGI (NCI-H460 lung): > 100 µM
GI50 (T-47D breast): 1.92 µM
TGI (T-47D breast): > 100 µM
GI50 (BT-549 breast): 0.731 µM
TGI (BT-549 breast): > 100 µM
GI50 (SF-295 CNS): 0.732 µM
TGI (SF-295 CNS): > 100 µM
GI50 (NCI-H23 lung): 0.697 µM
TGI (NCI-H23 lung): > 100 µM
GI50 (HCT-116 colon): 0.375 µM
TGI (HCT-116 colon): > 100 µM
GI50 (MALME-3M melanoma): 2.39 µM
TGI (MALME-3M melanoma): > 100 µM
GI50 (MOLT-4 leukemia): 0.592 µM
TGI (MOLT-4 leukemia): > 100 µM
GI50 (NCI/ADR-RES ovarian): 0.211 µM
TGI (NCI/ADR-RES ovarian): > 100 µM
GI50 (PC-3 prostate): 0.636 µM
TGI (PC-3 prostate): > 100 µM
GI50 (SN12C renal): 0.908 µM
TGI (SN12C renal): > 100 µM
GI50 (SK-MEL-5 melanoma): 2.22 µM
TGI (SK-MEL-5 melanoma): > 100 µM
GI50 (M14 melanoma): 0.51 µM
TGI (M14 melanoma): > 100 µM
GI50 (OVCAR-4 ovarian): 2.07 µM
TGI (OVCAR-4 ovarian): > 100 µM
GI50 (HS 578T breast): 0.364 µM
TGI (HS 578T breast): > 23.6 µM
GI50 (K-562 leukemia): 0.357 µM
TGI (K-562 leukemia): > 100 µM
GI50 (SK-MEL-2 melanoma): 1.34 µM
TGI (SK-MEL-2 melanoma): > 72.1 µM
GI50 (SF-539 CNS): 0.444 µM
TGI (SF-539 CNS): > 100 µM
GI50 (OVCAR-8 ovarian): 0.516 µM
TGI (OVCAR-8 ovarian): > 100 µM
GI50 (SK-MEL-28 melanoma): 1.15 µM
TGI (SK-MEL-28 melanoma): > 100 µM
GI50 (UACC-257 melanoma): 2.98 µM
TGI (UACC-257 melanoma): > 100 µM
GI50 (KM12 colon): 0.877 µM
TGI (KM12 colon): > 100 µM
GI50 (A549 NSCLC): 2.07 µM
TGI (A549 NSCLC): > 100 µM
GI50 (UO-31 renal): 0.273 µM
TGI (UO-31 renal): > 100 µM
GI50 (786-0 renal): 1.17 µM
TGI (786-0 renal): > 100 µM
GI50 (HT29 colon): > 100 µM
TGI (HT29 colon): > 100 µM
GI50 (U251 CNS): 0.327 µM
TGI (U251 CNS): > 22.1 µM
GI50 (A498 renal): 3.89 µM
TGI (A498 renal): > 100 µM
GI50 (CAKI-1 renal): 1.27 µM
TGI (CAKI-1 renal): > 100 µM
GI50 (HOP-62 NSCLC): 0.544 µM
TGI (HOP-62 NSCLC): > 100 µM
